Test: 13C-sodium bicarbonate breath test in one asthma patient, pre vs post inhaler medication
Assay type: in vivo, human
Details: breath test 45 minutes post medication vs pre-medication, advair and albuterol taken together, FIG. 4
Protocol: FIG. 3 exemplifies two such breath curves.
In this embodiment, the slope of the Δ ^13CO2 curve at time points t1 and t2 is calculated according to the following equation: slope={(Δ ^13CO2)2−(Δ ^13CO2)1}/(t2−t1)
As an example, the slope of the curve of FIG. 4 can be measured at the 10 minute time point and the 20 minute time point, to give a variable for determining lung function. […] It can be seen from FIG. 4 that the individual post-medication curve has a steeper slope for the 10 and 20 minute time point interval than prior to the medication, indicating an improved lung function. These specific time values are exemplary only and other time periods or half life of the disappearance curve can be used.
This example describes the monitoring of the reduction in airway resistance in one asthma patient following inhaler medication therapy—advair (fluticasone propionate 100 mcg and salmeterol 50 mcg inhalation powder) and albuterol (racemic (α^1-[(tert-butylamino)methyl]-4-hydroxy-m-xylene-α,α′-diol, commercially available as Ventolin®, Proventil®) a relatively selective beta2-adrenergic bronchodilator.
A breath test was performed at 7 am before the patient ingested any asthma medication. The medication was taken at 8:15 am.

## CC(C)(C)NCC(O)c1ccc(O)c(CO)c1 (racemic) [albuterol]
  AUC of expired Δ13CO2 breath curve (cumulative ‰×h), post vs pre medication: improvement
  slope of Δ13CO2 breath curve between 10-20 minutes, post vs pre medication: possibly the slope (steepening)
